Laboratory results from PubChem BioAssay (NCI).
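A five-concentration, 48-hour dose response in 96-well plates underlies each endpoint, interpolated linearly between surrounding concentrations. At the GI50, growth is halved. TGI denotes the concentration required for complete inhibition of growth.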

Assays:
Experiment in all cases: DTP human tumour cell line panel, 48 h
HOP-62 NSCLC = tested on: HOP-62 NSCLC
UO-31 renal = tested on: UO-31 renal
M14 melanoma = tested on: M14 melanoma
MDA-MB-435 = tested on: MDA-MB-435
RXF 393 renal = tested on: RXF 393 renal
TK-10 renal = tested on: TK-10 renal
MDA-MB-231 breast = tested on: MDA-MB-231 breast
SN12C renal = tested on: SN12C renal

Structure (SMILES)	TGI (HOP-62 NSCLC) [µM]	TGI (UO-31 renal) [µM]	TGI (M14 melanoma) [µM]	TGI (MDA-MB-435) [µM]	TGI (RXF 393 renal) [µM]	TGI (TK-10 renal) [µM]	TGI (MDA-MB-231 breast) [µM]	TGI (SN12C renal) [µM]	GI50 (HOP-62 NSCLC) [µM]	GI50 (UO-31 renal) [µM]	GI50 (M14 melanoma) [µM]	GI50 (MDA-MB-435) [µM]	GI50 (RXF 393 renal) [µM]	GI50 (TK-10 renal) [µM]	GI50 (MDA-MB-231 breast) [µM]	GI50 (SN12C renal) [µM]
OCC12C3C4C5C3C1C5C42 (stereo not drawn)	> 100	> 100	> 100	> 100	> 100	> 100	> 100	> 100	–	–	–	–	–	–	–	–
CCOc1ccccc1C(=O)N1CCN(c2cc(Cl)cc(Cl)c2)CC1	15.8	16	1.72	0.0527	1.06	24	12.3	14.7	0.0416	0.0978	0.0293	0.0157	0.0175	9.16	0.0444	0.0493
O=S(=O)(c1ccc(Cl)cc1)C(Cl)(Cl)Cl	> 49.5	11.5	4.32	4.7	8.91	> 75.1	23	30.3	8.12	0.298	1.63	0.908	1.47	9.56	3.85	3.54
O=C1OCC2=C1C(c1ccccc1)c1cc3c(cc1N2)OCO3 (stereo not drawn)	33.4	> 100	> 100	0.026	–	> 100	> 74.7	> 65	0.0462	0.332	0.0276	–	–	11.4	0.046	0.0557
COc1cc2c(cc1C1COc3cc4occc4cc3C1=O)OCO2 (stereo not drawn)	> 100	> 100	> 100	> 100	> 100	> 100	> 100	> 100	–	–	–	–	–	–	–	–
CC(=O)OC12C=C(C)C(C(C)C1)C1C(=O)N(CCN3CCOCC3)C(=O)C12 (stereo not drawn)	> 100	> 100	> 100	> 100	–	> 100	> 100	> 100	> 100	> 100	> 100	> 100	–	> 100	> 100	> 100
O=C(/C=C\c1cccc([N+](=O)[O-])c1)/C=C/c1cccc([N+](=O)[O-])c1	–	4.9	7.33	12.4	6.57	8.7	> 100	> 100	–	1.7	2.49	2.79	2.55	2.97	14.4	67
COc1ccc(-c2[nH]c3ccccc3c2-c2ccc(OC)cc2)cc1	26.2	15.5	14.8	4.58	–	41	23.5	23.5	10.2	3.29	3.9	1.79	–	12.6	4.69	6.73
COc1cc(N2C(=O)[C@H](O)C2c2ccc(SC)cc2)cc(OC)c1OC (stereo partly drawn)	> 100	–	0.0198	–	> 100	> 100	> 100	> 100	< 0.01	–	< 0.01	–	< 0.01	23.2	0.0235	0.0482
CO[C@H]1CC(O[C@@H]2/C(C)=C/C[C@@H]3C[C@@H](C[C@]4(C=C[C@H](C)[C@@H](C5CCCCC5)O4)O3)OC(=O)[C@@H]3C=C(C)[C@@H](O)[C@H]4OC/C(=C\C=C\[C@@H]2C)[C@]43O)O[C@@H](C)C1O[C@H]1C[C@H](OC)[C@@H](O)[C@H](C)O1 (stereo partly drawn)	3.22	2.71	3.13	3.13	2.46	3.51	–	–	1.73	1.4	1.67	1.57	1.18	1.84	–	–
O=C1c2cccnc2C(=O)c2c1c(C(=O)NCCCN1CCCCC1)c1ccccn21	3.18	6.71	2.44	1.52	3.4	–	7.23	1.84	1.08	1.42	1.15	0.403	1.28	–	0.562	0.472
CN(C)CCCn1c(=O)c2ccccc2c2ccccc21	> 100	–	29.6	26.6	26.7	> 100	62.7	> 100	20.5	–	14.4	11.8	12.5	20.3	22.3	16.9
O=C(/C=C/c1cc2ccccc2[nH]c1=O)/C=C/c1cc2ccccc2[nH]c1=O	> 76.9	> 100	–	> 20	10.8	> 60.7	> 100	> 86.6	14.5	> 100	–	–	6.88	11.6	15.4	12.6
